Experimental data taken from patent US6368580B1, “Composition suitable as food integrator and for the treatment of intestinal disorders and alterations of the bacterial flora” (Giuliani S.p.A, priority 1999, dated 2002).
Entries after “also recorded” stand apart in the source; their conditions may differ.

Key:
Bacillus coagulans [1] = assay: Growth of Bacillus coagulans in Sabouraud's broth with added nutrient, optical density by biophotometer; assay type: cell-based; conditions: for increase in growth of Bacillus coagulans (optical density A630), preliminary evaluations of amino acids: aspartic acid, proline, lysine, tryptophan compared, biophotometer
Experimental: Consequently, microbiological tests have been conducted by adding a number of amino acids (particularly aspartic acid, lysine, proline) to the culture medium specific for Lactobacillus. […] Evaluation of the growth of Bacillus coagulans was performed using and agar/Sabouraud's broth to which 0.5% of yeast extract was added. At this point, an attempt was made to determine which of the various amino acid components present in the yeast (aspartic acid, proline, lysine, tryptophan), and in what concentrations, were able to favor more vigorous development of the microorganism. The increase in growth was evaluated by biophotometer which recorded the optical density (A630).
In special sterilized cuvettes for biophotometry, broth cultures were prepared, with the addition to the base culture medium (10 ml of Sabouraud's broth) of: […]
One cuvette containing Sabouraud's broth alone was used as control. Each of the four broth cultures was subsequently inoculated with 100 μl of a dilution of a broth culture (overnight incubation) of Bacillus coagulans made starting from the lyophilized powder (final concentration of 10^4 cfu/ml).
The growth of the culture was evaluated in terms of optical density, using a biophotometer, which is capable of determining the degree of development on the basis of the increase in turbidity. The curvettes thus prepared were set inside the compartment of the instrument in the presence of a magnetic stirrer that was able to keep the culture in uniform suspension, a condition which enables a proper reading of the turbidity of the culture medium to be made.
The optical density appears on the ordinate, the values proportional to the number of bacteria produced. The time is given on the abscissa. The four curves shown on the graph identify the behavior, respectively, of lysine (at a concentration of 0.025 mg/ml), yeast (5 mg/ml), proline (0.01 mg/ml), and the Sabouraud's culture medium reference standard.

Bacillus coagulans [2] = assay: Lactic acid (L+) production in Bacillus coagulans broth culture; assay type: cell-based; conditions: 24-hour broth culture to which lysine was added; higher than blank controls or other amino acids

Compound	growth of the Lactobacillus cells and formation of lactic acid (L+) (Bacillus coagulans [1]; amino acid added to the culture medium, lysine at concentrations of the order of 0.1-1 mg/ml)	increase in growth of Bacillus coagulans (optical density A630), preliminary evaluations of amino acids (Bacillus coagulans [1])	growth of Bacillus coagulans (optical density, growth curve) (Bacillus coagulans [1]; lysine 0.025 mg/ml in Sabouraud's broth, overnight incubation at 37° C., compared with proline 0.01 mg/ml, yeast 5 mg/ml, broth alone)	lactic acid (L+) production (Bacillus coagulans [2]) [mg/L]
NCCCC[C@H](N)C(=O)O [lysine]	enhanced the growth of the Lactobacillus cells and the formation of lactic acid (L^+)	best results	most effective nutrient; also recorded: significantly increases the growth curve, reducing the latency phase and increasing the number of cells	486
O=C(O)[C@@H]1CCCN1 [proline, reference compound]	–	best results	–	–
